Measurements as given in the SangsterLogP compilation.

Key:
[1] = method code SF-HPLC, from DOI: 10.1002/jps.2600830309, PMID: 8207673; settings: pH 7.5

`CCOc1ccc(I)c(O)c1C(=O)NC[C@@H]1CCCN1CC` showed a logD [1] of 2.84.
Molecule `CCc1cc(Cl)c(O)c(C(=O)NC[C@@H]2CCCN2CCF)c1OC` has a logD (pH 7.5) of 4.71.
Work on `COc1cc(Br)cc(C(=O)NC[C@@H]2CCCN2CCF)c1OC` yielded a logD (pH 7.5) of 3.22.
Molecule `CCOc1c(OC)cc(I)c(O)c1C(=O)NC[C@@H]1CCCN1CC` has a logD (pH 7.4) of 2.52.
